Test results from US12311054B2, “Compositions and methods of using propylene sulfide-based polymers for treatment of Chagas disease” (priority 2019, dated 2025).
Read-outs that look alike come from different tables or passages of the source.

How the values were obtained:
[1] = mice; cited from earlier work
[2] = Assessment of the toxicity of BNZ and BNZ-PS in vivo; parameters: species or system mouse; details: BNZ 100 mg/kg
Method: […] Mice weight was recorded during the treatment course. […] Serums (Sera) were sent out to central lab (IDEXX BioResearch) to measure alanine aminotransferase (ALT/SGPT), aspartate aminotransferase (AST/SGOT), bile acid, bilirubin, blood urea nitrogen (BUN), creatinine, gamma-glutamyltransferase (GGT).

[3] = traditional oral formulation; cited from earlier work
[4] = cited from earlier work
[5] = tested on: T. cruzi Y strain amastigote; assay: Anti-amastigote activity in infected H9C2 cells, Giemsa counting, Y strain; format: cell-based; details: Trypanosoma cruzi, Y strain amastigotes in H9C2 cells, 48 h
[6] = tested on: T. cruzi Tulahuen strain amastigote (Luc-mNeonGreen); assay: Anti-amastigote activity in infected H9C2 cells, bioluminescent quantification, Tulahuen strain; format: cell-based; details: Trypanosoma cruzi, Tulauan strain amastigotes in H9C2 cells, bioluminescence, 48 h
Method: For the evaluation of anti-amastigote activity of T. cruzi Tulahuen strain, 5000 H9C2 cells were seeded in a 96 well clear bottom tissue culture plate (Thermo Scientific). After 24 hours, the culture was infected with Luc-mNeonGreen Tulahuen strain trypomastigotes at a 1:5 host-to-parasite cell ratio for 24 h. […] The medium was replaced every 24 h. At 48 h, 10 μL of 15 mg mL-1 luciferin were added into each well, and the luciferase intensity was measured using a IVIS Spectrum (Caliper Life Science) and the ROI was analyzed with Softmas Pro. Exposure time varied from 5 s to 15 s depending on signal intensity.

[7] = tested on: T. cruzi; assay: IC50 of free vs nanocarrier-loaded Benznidazole (description, stage and strain not stated); format: cell-based; details: Trypanosoma cruzi; free vs loaded in nanocarrier; typical / estimated values
[8] = tested on: T. cruzi-infected patients; details: standard BNZ doses; cited from earlier work
[9] = humans; cited from earlier work
[10] = tested on: T. cruzi Y strain infected BALB/c mice; assay: BNZ and BNZ-PS therapy in murine model of acute Chagas disease; format: in vivo, mouse
[11] = tested on: T. cruzi Tulauen strain trypomastigote; assay: Anti-trypomastigote activity, resazurin assay, Tulauen strain; format: cell-based; details: Trypanosoma cruzi, read-out: half-inhibitory concentration (IC50), Tulauan strain trypomastigote
Method: (§1) IC50 for two strains of T. cruzi. The trypancidal effectiveness of BNZ-PS for Y and Tulauen strain was evaluated in vitro using the resarzurin assay (FIG. 2a).
(§2) Resazurin method was used to evaluate in vitro anti-trypanosoma activity against Y trypomastigotes. 1×10^7 trypomastigotes mL^−1 were incubated in 96-well plates containing serial dilution of BNZ and BNZ-PS in RPMI […] medium with 5% FBS, penicillin (100 μL/mL), […] (100 μL/mL) and L-glutamine (2 mM). For BNZ, the stock solution (1024 mM) was prepared in DMSO and made serial dilution to 1024 μM, 512 μM, 256 μM, 128 μM, 64 μM, 32 μM, 16 μM, 8 μM, 4 μM. For BNZ-PS, the stock solution (BNZ 1170 μM) was made serial dilution to 256 μM, 128 μM, 64 μM, 32 μM, 16 μM, 8 μM, 4 μM, 2 μM, 1 μM, 0.5 μM. After incubation for 24 h, at 37° C. and 5% CO2, 10 μL of alamarBlue Cell Viability reagent (Invitrogen) were added in each well, then incubate at 37° C. for 4 h. The fluorescence was measure on a microplate reader (BMG Labtech) at 560/590 nm to evaluate trypomastigote viability. A log concentration vs response curve was generated and the BNZ IC50 was calculated in GraphPad Prism 7.0.

[12] = tested on: T. cruzi Y strain trypomastigote; assay: Anti-trypomastigote activity, resazurin assay, Y strain; format: cell-based; details: Trypanosoma cruzi, 24 h, read-out: half-inhibitory concentration (IC50), Y strain trypomastigote
Method: as §1
The Y strain of T. cruzi was used for all experiments. Epimastigotes were cultured using standard methods and tissue culture amastigotes and trypomastigotes were produced by the addition of log-phase epimastigotes to cultured H9C2 rat myoblast cells, which contain small numbers of metacyclic trypomastigotes capable of initiating mammalian cell infection. After several days of culture in H9C2 cells, amastigotes and trypomastigotes were purified for use in IC50 determination experiments.
as §2, with “For BNZ-PS, the stock solution (BNZ 1170 μM) was made serial dilution to 256 μM, 128 μM, 64 μM, 32 μM, 16 μM, 8 μM, 4 μM, 2 μM, 1 μM, 0.5 μM. After incubation for 24 h, at 37° C. and 5% CO2, 10 μL of alamarBlue Cell Viability reagent (Invitrogen) were added in each well, then incubate at 37° C. for 4 h.” left out

[13] = tested on: extracellular T. cruzi developmental stages; details: cited from earlier work

Compound | half-life (t1/2) [1] | hepatotoxicity, serum ALT ([2]; d21) | body weight during treatment ([2]; BNZ-PS 1.5 or 0.15 mg/kg, 3 weeks) | fraction of drug bound to plasmatic proteins [3] | water solubility [4] | water solubility ([4]; listed as Benznidazole (BNZ)) | IC50 [5] | IC50 [6] | IC50 [7] | patients interrupting treatment due to severe side effects [8] | half-life (t1/2) [9] | heart parasitemia (qPCR) ([10]; end of experiment, 25 dpi) | suppression of parasitemia ([10]; infected mice treated from d7, monitored to d25) | IC50 [11] | IC50 [12] | activity against extracellular T. cruzi developmental stages [13]
O=C(Cn1ccnc1[N+](=O)[O-])NCc1ccccc1 [BNZ, N-benzyl-2-(2-nitro-1H-imidazol-1-yl)acetamide] | 2 h | show hepatotoxicity as reflected by increased serum ALT | lose weight | over 40% | practically insoluble in water | poor water solubility | 30.1 µM | 12.5 µM | ~33 µM | 20% | 12 h | significantly reduces the heart parasitemia | Effective suppression of parasitemia | 12.4 µM | 55.9 µM | –
C[C@@H]1[C@H](O)[C@@H](C)/C=C/C=C/C=C/C=C/C=C/C=C/C=C/[C@H](O[C@@H]2O[C@H](C)[C@@H](O)[C@H](N)[C@@H]2O)C[C@@H]2O[C@](O)(C[C@@H](O)C[C@@H](O)[C@H](O)CC[C@@H](O)C[C@@H](O)CC(=O)O[C@H]1C)C[C@H](O)[C@H]2C(=O)O [Amphotericin B] | – | – | – | – | – | – | – | – | – | – | – | – | – | – | – | satisfactory
